Test results as given in article PMC8623418, “Novel Multitarget Hydroxamic Acids with a Natural Origin CAP Group against Alzheimer’s Disease: Synthesis, Docking and Biological Evaluation” (Pharmaceutics, 2021).

Assays:
β-amyloid 1–40 = β-amyloid 1–40 aggregation, Thioflavin T fluorescence; type: biochemical; conditions: 100 μM, 72 h incubation
Protocol: The effect of the studied compounds on the aggregation of β-amyloid (1–40/1–42) was analyzed using the method of recording Thioflavin T fluorescence (10 µM) for 72 h at 37 °C. The fluorescence signal was measured using a multifunctional flatbed analyzer, the Cytation ™ 3 (BioTek Instruments, Inc., Winooski, VT, USA), at λex = 450 nm, λem = 480 nm.
The effect of hydroxamic acids on the stage of aggregation of the pathological β-amyloid peptide was investigated for 72 h using two model systems—fragments Aβ1–40 and Aβ1–42. The fluorophore Thioflavin T was used as an indicator of the ongoing fibrillation process, the interaction of which with proteins in the state of amyloid fibrils leads to an increase in the fluorescence signal.

SH-SY5Y cells = experiment: MTT cell viability, SH-SY5Y; type: cell-based; conditions: Homo sapiens, MTT test
Protocol: The effect of the hydroxamic acids on the viability of cells obtained from human embryonic kidneys, HEK 293, as well as the native form of human neuroblastoma, SH-SY5Y, was evaluated in the MTT test. Using a multifunctional flatbed analyzer, Cytation™3 (BioTek Instruments, Inc., Winooski, VT, USA), the optical density was determined at a wavelength of 530 nm. Based on the dose-dependent curves, the concentration values leading to 50% inhibition of cell population growth (IC50) were calculated.
Due to the fact that most compounds of the class of hydroxamic acids have high cytotoxic activity and are mainly used as anticancer drugs, their use as neuroprotective drugs is limited. Since the goal of our work was to search for agents for the pharmacological correction of neurodegenerative diseases, a necessary part of the biological activity study of the synthesized hydroxamic acids was to determine their effect on the survival of cell cultures. In our work, we used neuron-like neuroblastoma cells SH-SY5Y and a healthy cell line isolated from the human embryonic kidney, HEK 293.

[1] = Stability in rat blood plasma, LC–MS/MS; type: in vitro ADME; conditions: 1000 ng/mL spike
Protocol: EDTA-stabilized rat blood plasma was used in the study. The spikes were prepared by adding 100 µL of the solution of a compound to 900 µL of plasma, followed by continuous shaking. A 100 µL aliquot of a sample was taken and mixed with 900 µL of MeOH, shaken for 15 min, and centrifuged. Then, 100 µLc of the supernatant was transferred to a vial insert and analyzed.
HPLC–MS/MS analyses were performed using a Shimadzu LC-20AD Prominence chromatograph equipped with a SIL-20AC cooled autosampler and a gradient pump. A column filled with a reversed-phase ProntoSil 120-AQ C18 sorbent (Econova, Novosibirsk) was used. Water with the addition of 0.1% HCOOH was used as mobile phase A, and methanol containing 0.1% HCOOH was used as mobile phase B. The gradient was as follows: 0 min—5% B; 1 min—5% B; 2 min—95% B; 5 min—100% B; the flow rate was 300 μL/min; the injection volume was 10 μL. The column was then equilibrated for the following analysis. […]
To study the stability of the compounds, their solutions (spikes) in rat blood plasma were prepared with a concentration of 1000 ng/mL. […] Aliquots of the spike with a volume of 100 μL were taken after 5, 15, 30, 60, 120, 180, and 270 min, after which the sample was mixed with MeOH, shaken for 10 min, then centrifuged and analyzed with LC–MS/MS.

5xFAD transgenic mice = experiment: Open field test in 5xFAD mice; type: in vivo; conditions: 15 mg/kg i.p. for 20 days, 11-month-old male 5xFAD mice
Protocol: All animal procedures were approved by the Animal Care and Use Committee of IPAC RAS. For in vivo studies, 11-month-old male mice of the 5xFAD line (Tg(APPSwFlLon,PSEN1*M146L*L286V) 6799Vas/J) were used. The animals were housed in cages with free access to water and food in a room with a 12 h/12 h light–dark cycle, at a temperature of 23 ± 1 °C and humidity of 50 ± 5%. Before the series of experiments, animals were randomly divided into four groups (n = 8 per group): (1) wild-type group (C57BL6/j mouse line); (2) 5xFAD group; (3) 5xFAD + 15 group; and (4) 5xFAD + 25 group.
Both compounds 15 and 25 were dissolved in saline solution and DMSO (10%) immediately before use and intraperitoneally administered to animals for 20 days at a dose of 15 mg/kg body weight for experiments. In the control group, the vehicle solution (saline and DMSO (10%), intraperitoneal) was administered with the same time schedule.
The open field box consisted of a square, non-transparent, grey box (40 cm × 40 cm × 40 cm). Illumination intensity was kept at 50 lux. During a session, a single animal was allowed to explore the empty open field, and its baseline level of activity was measured. The session lasted for 10 min (Figure 5A). […] The number of standing events was manually counted in a blind manner by one observer. […]

Row | SMILES | Effect on β-amyloid 1–40 aggregation (β-amyloid 1–40) | IC50 (SH-SY5Y cells) | Time stable in rat blood plasma [1] | Open field: standing events, distance, movement rate, time in central and peripheral areas (5xFAD transgenic mice) | half-life at 1000 ng/mL ([1]; rat, EDTA-stabilized rat blood plasma, estimated from the graph)
1 | O=C(/C=C/c1ccc(C(=O)NO)cc1)NC1C2CC3CC(C2)CC1C3 (centres unmarked) [compound 25, 4-((E)-3-((-Adamantan-2-yl)amino)-3-Oxoprop-1-en-1-yl)-N-Hydroxybenzamide] | noticeable fibrillation inhibition | 59.51 ± 0.42 µM | ≥ 4.5 h | did not show any alteration | –
2 | O=C(CCCCCCC(=O)NC1C2CC3CC(C2)CC1C3)NO (centres unmarked) [compound 15, N^1-(Adamant-2-yl)-N^8-Hydroxyoctanediamide] | noticeable fibrillation inhibition | 47.6 ± 7.19 µM | – | did not show any alteration | 1 to 1.17 h
